In US9796733B2, “Imidazo-pyrazine derivatives useful as soluble guanylate cyclase activators” (Merck Sharp & Dohme Corp., priority 2014, dated 2017):

Target: T1, sGC α1/β1 heterodimer (Homo sapiens, UniProt Q02108+Q02153)
T1 construct: expressed in transfected cells; host or cells: CHO-K1 (clone #7, CHO-K1/sGC)
T1 sequence (Q02108 1-690): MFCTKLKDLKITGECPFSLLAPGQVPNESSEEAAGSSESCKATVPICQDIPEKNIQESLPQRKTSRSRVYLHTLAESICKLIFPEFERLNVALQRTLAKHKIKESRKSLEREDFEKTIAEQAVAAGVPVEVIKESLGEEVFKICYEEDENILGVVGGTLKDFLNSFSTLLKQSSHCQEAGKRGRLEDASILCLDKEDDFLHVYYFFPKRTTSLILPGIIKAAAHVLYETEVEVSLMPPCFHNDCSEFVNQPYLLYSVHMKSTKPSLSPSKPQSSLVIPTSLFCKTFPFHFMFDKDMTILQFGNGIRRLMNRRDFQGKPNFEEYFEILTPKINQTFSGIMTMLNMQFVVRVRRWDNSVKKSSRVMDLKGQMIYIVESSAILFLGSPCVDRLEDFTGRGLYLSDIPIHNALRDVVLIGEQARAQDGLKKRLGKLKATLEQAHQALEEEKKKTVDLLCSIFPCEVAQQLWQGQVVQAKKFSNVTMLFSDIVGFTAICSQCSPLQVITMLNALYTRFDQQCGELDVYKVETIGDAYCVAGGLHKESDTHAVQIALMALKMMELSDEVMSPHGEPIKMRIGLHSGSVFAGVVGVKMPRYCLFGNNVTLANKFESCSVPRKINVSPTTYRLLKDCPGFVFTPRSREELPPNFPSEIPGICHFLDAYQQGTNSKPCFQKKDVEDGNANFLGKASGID
T1 sequence (Q02153 1-619): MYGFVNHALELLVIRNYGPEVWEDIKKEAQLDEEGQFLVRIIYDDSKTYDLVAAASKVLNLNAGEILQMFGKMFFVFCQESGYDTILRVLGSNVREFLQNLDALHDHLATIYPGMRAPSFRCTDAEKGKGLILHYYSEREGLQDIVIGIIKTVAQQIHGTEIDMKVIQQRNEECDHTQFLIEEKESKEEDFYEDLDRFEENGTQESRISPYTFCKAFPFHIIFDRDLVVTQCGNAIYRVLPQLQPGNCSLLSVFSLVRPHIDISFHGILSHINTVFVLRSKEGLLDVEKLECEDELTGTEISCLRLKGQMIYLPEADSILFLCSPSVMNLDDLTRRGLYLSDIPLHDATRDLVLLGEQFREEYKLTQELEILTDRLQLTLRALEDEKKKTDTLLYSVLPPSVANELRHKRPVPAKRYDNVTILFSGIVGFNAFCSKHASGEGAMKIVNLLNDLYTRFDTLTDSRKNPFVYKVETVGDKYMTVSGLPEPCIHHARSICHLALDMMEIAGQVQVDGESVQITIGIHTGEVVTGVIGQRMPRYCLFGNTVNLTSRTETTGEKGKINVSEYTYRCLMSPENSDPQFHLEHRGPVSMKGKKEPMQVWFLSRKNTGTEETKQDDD
Experiment: Cell-based sGC functional assay (CASA assay): cGMP generation in CHO-K1/sGC cells, HTRF detection
Settings: for Emax: CHO-K1, percent activation relative to standard Compound A in CHO-K1/sGC cells, read-out: % Act.; for EC50: inflection point (IP) of cGMP generation in CHO-K1/sGC cells, 4P fit, activity expressed as percentage of Compound A
Outline: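 cGMP was quantified by HTRF after 1 hr, 37° C exposure of thawed CHO-K1 cells expressing sGC α1/β1 to compound, with or without 1 μM DETA-NO. IBMX (0.5 mM) blocked cGMP breakdown, and DMSO was 2.5% final. Percent of standard Compound A's maximal cGMP was fitted (4P) for inflection point.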

SMILES | Emax [%] | EC50 [nM]
CC1(c2ccc(F)cn2)C(=O)Nc2nc(-c3cn4ccnc4c(C4CCC4)n3)nc(N)c21 (stereo not drawn) [Example 27B, 4-amino-2-(8-cyclobutylimidazo[1,2-a]pyrazin-6-yl)-5-(5-fluoropyridin-2-yl)-5-methyl-5H-pyrrolo[2,3-d]pyrimidin-6(7H)-one] | 85 | 441
Nc1nc(-c2cn3ccnc3c(CCC(F)(F)F)n2)nc2c1C(c1ncc(Cl)cn1)(C1CC1)C(=O)N2 (stereo not drawn) [Example 374A, 4-amino-5-(5-chloropyrimidin-2-yl)-5-cyclopropyl-2-(8-(3,3,3-trifluoropropyl)imidazo[1,2-a]pyrazin-6-yl)-5H-pyrrolo[2,3-d]pyrimidin-6(7H)-one] | 126 | 387
Nc1nc(-c2cn3ccnc3c(CCC(F)(F)F)n2)nc2c1C(c1ccc(Cl)cc1)(C1CCC1)C(=O)N2 (single isomer, unassigned) [Example 351B, 4-amino-5-(4-chlorophenyl)-5-cyclobutyl-2-(8-(3,3,3-trifluoropropyl)imidazo[1,2-a]pyrazin-6-yl)-5H-pyrrolo[2,3-d]pyrimidin-6(7H)-one] | 182 | 985
CN(C)c1nc(-c2cn3ccnc3c(CCC(F)(F)C(F)(F)F)n2)nc2c1C(C)(c1ccc(F)cc1)C(=O)N2 (stereo not drawn) [Example 308A, 4-(dimethylamino)-5-(4-fluorophenyl)-5-methyl-2-(8-(3,3,4,4,4-pentafluorobutyl)imidazo[1,2-a]pyrazin-6-yl)-5H-pyrrolo[2,3-d]pyrimidin-6(7H)-one] | 126 | 281
CC1(c2ccc(F)cc2)C(=O)Nc2nc(-c3cn4cc(C(F)(F)F)nc4c(Cc4ccc(F)cc4)n3)nc(N)c21 (stereo not drawn) [Example 155A, 4-amino-2-(8-(4-fluorobenzyl)-2-(trifluoromethyl)imidazo[1,2-a]pyrazin-6-yl)-5-(4-fluorophenyl)-5-methyl-5H-pyrrolo[2,3-d]pyrimidin-6(7H)-one] | 112 | 130
CC1(c2ccc(Cl)cc2)C(=O)Nc2nc(-c3cn4ccnc4cn3)nc(NC3CC(F)(F)C3)c21 (stereo not drawn) [Example 287A, 5-(4-chlorophenyl)-4-((3,3-difluorocyclobutyl)amino)-2-(imidazo[1,2-a]pyrazin-6-yl)-5-methyl-5H-pyrrolo[2,3-d]pyrimidin-6(7H)-one] | 133 | 376
CC1(c2ccc(F)cc2)C(=O)Nc2nc(-c3cn4c(CCC5CCCCC5)cnc4cn3)nc(N)c21 (stereo not drawn) [Example 261A, 4-Amino-2-(3-(2-cyclohexylethyl)imidazo[1,2-a]pyrazin-6-yl)-5-(4-fluorophenyl)-5-methyl-5H-pyrrolo[2,3-d]pyrimidin-6(7H)-one] | 116 | 822
CCC(CC)Cc1nc(-c2nc(N)c3c(n2)NC(=O)C3(C)c2ccc(F)cc2)cn2ccnc12 (stereo not drawn) [Example 13A, 4-amino-2-(8-(2-ethylbutyl)imidazo[1,2-a]pyrazin-6-yl)-5-(4-fluorophenyl)-5-methyl-5H-pyrrolo[2,3-d]pyrimidin-6(7H)-one] | 114 | 42
CC1(c2ccc(Cl)cc2)C(=O)Nc2nc(-c3cn4ccnc4c(CCCC(F)(F)F)n3)nc(N)c21 (stereo not drawn) [Example 206A, 4-amino-5-(4-chlorophenyl)-5-methyl-2-(8-(4,4,4-trifluorobutyl)imidazo[1,2-a]pyrazin-6-yl)-5H-pyrrolo[2,3-d]pyrimidin-6(7H)-one] | 116 | 21
CN(C)c1nc(-c2cn3ccnc3c(CCC(F)(F)C(F)(F)F)n2)nc2c1C(C)(c1ccc(F)cn1)C(=O)N2 (stereo not drawn) [Example 291B, 4-(dimethylamino)-5-(5-fluoropyridin-2-yl)-5-methyl-2-(8-(3,3,4,4,4-pentafluorobutyl)imidazo[1,2-a]pyrazin-6-yl)-5H-pyrrolo[2,3-d]pyrimidin-6(7H)-one] | 126 | 786
CC1(c2cc(F)cc(F)c2)C(=O)Nc2nc(-c3cn4ccnc4cn3)nc(N)c21 (stereo not drawn) [Example 142B, 4-amino-5-(3,5-difluorophenyl)-2-(imidazo[1,2-a]pyrazin-6-yl)-5-methyl-5H-pyrrolo[2,3-d]pyrimidin-6(7H)-one] | 166 | 667
CN(C)c1nc(-c2cn3ccnc3cn2)nc2c1C(C)(c1ccc(Cl)cc1)C(=O)N2 (stereo not drawn) [Example 312A] | 93 | 25
CC(C)c1nc(C2(C)C(=O)Nc3nc(-c4cn5ccnc5c(CCC(F)(F)C(F)(F)F)n4)nc(N)c32)no1 (single isomer, unassigned) [Example 321B, 4-amino-5-(5-isopropyl-1,2,4-oxadiazol-3-yl)-5-methyl-2-(8-(3,3,4,4,4-pentafluorobutyl)imidazo[1,2-a]pyrazin-6-yl)-5H-pyrrolo[2,3-d]pyrimidin-6(7H)-one] | 126 | 237
Nc1nc(-c2cn3ccnc3c(CCC(F)(F)C(F)(F)F)n2)nc2c1C(c1ccc(Cl)cc1)(C1CCC1)C(=O)N2 (single isomer, unassigned) [Example 350B, 4-amino-5-(4-chlorophenyl)-5-cyclobutyl-2-(8-(3,3,4,4,4-pentafluorobutyl)imidazo[1,2-a]pyrazin-6-yl)-5H-pyrrolo[2,3-d]pyrimidin-6(7H)-one] | 239 | 105
CC1(c2ccc(F)cc2)C(=O)Nc2nc(-c3cn4ccnc4c(CCC(F)(F)C(F)(F)F)n3)nc(N3CCOCC3)c21 (stereo not drawn) [Example 310A, 5-(4-fluorophenyl)-5-methyl-4-morpholino-2-(8-(3,3,4,4,4-pentafluorobutyl)imidazo[1,2-a]pyrazin-6-yl)-5H-pyrrolo[2,3-d]pyrimidin-6(7H)-one] | 77 | 45
CC1(c2ccc(OC(F)(F)F)cc2)C(=O)Nc2nc(-c3cn4ccnc4cn3)nc(N)c21 (stereo not drawn) [Example 145A, 4-amino-2-(imidazo[1,2-a]pyrazin-6-yl)-5-methyl-5-(4-(trifluoromethoxy)phenyl)-5H-pyrrolo[2,3-d]pyrimidin-6(7H)-one] | 96 | 385
Nc1nc(-c2cn3ccnc3c(Cc3ccccc3F)n2)nc2c1C(c1ccc(Cl)cn1)(C1CC1)C(=O)N2 (stereo not drawn) [Example 110A, 4-amino-5-(5-chloropyridin-2-yl)-5-cyclopropyl-2-(8-(2-fluorobenzyl)imidazo[1,2-a]pyrazin-6-yl)-5H-pyrrolo[2,3-d]pyrimidin-6(7H)-one] | 154 | 51
CC1(c2ccc(F)cn2)C(=O)Nc2nc(-c3cn4c(N)cnc4c(CCC(F)(F)C(F)(F)F)n3)nc(N)c21 (stereo not drawn) [Example 268B, 4-Amino-2-(3-amino-8-(3,3,4,4,4-pentafluorobutyl)imidazo[1,2-a]pyrazin-6-yl)-5-(5-fluoropyridin-2-yl)-5-methyl-5H-pyrrolo[2,3-d]pyrimidin-6(7H)-one] | 79 | 338
CC(C)C1(C)C(=O)Nc2nc(-c3cn4ccnc4c(Cc4ccccc4)n3)nc(N)c21 (stereo not drawn) [Example 80A, 4-amino-2-(8-benzylimidazo[1,2-a]pyrazin-6-yl)-5-isopropyl-5-methyl-5H-pyrrolo[2,3-d]pyrimidin-6(7H)-one] | 125 | 66
CC1(c2ccc(F)cc2)C(=O)Nc2nc(-c3cn4ccnc4c(CCC(F)(F)C(F)(F)F)n3)nc(N3CCCC3)c21 (stereo not drawn) [Example 301A, 5-(4-fluorophenyl)-5-methyl-2-(8-(3,3,4,4,4-pentafluorobutyl)imidazo[1,2-a]pyrazin-6-yl)-4-(pyrrolidin-1-yl)-5H-pyrrolo[2,3-d]pyrimidin-6(7H)-one] | 116 | 317
CC1(c2ccc(F)cc2)C(=O)Nc2nc(-c3cn4ccnc4c(Cc4ccc(F)c(F)c4)n3)nc(N)c21 (stereo not drawn) [Example 96A, 4-amino-2-(8-(3,4-difluorobenzyl)imidazo[1,2-a]pyrazin-6-yl)-5-(4-fluorophenyl)-5-methyl-5H-pyrrolo[2,3-d]pyrimidin-6(7H)-one] | 106 | 4
